Biological target: T1, IRAK4 (Homo sapiens, UniProt Q9NWZ3)
T1 construct: purchased Thermo Fisher Scientific (Life Technologies) SelectScreen
Assay: SelectScreen Z'LYTE
Type: biochemical
How it was run: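 SelectScreen broad panel; activity (Z'LYTE, Adapta) plus binding formats. ATP: Km app for CSF1R Z'LYTE; 10 for CAMK1 Adapta. Readout = % per kinase.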

T1 sequence (Q9NWZ3 whole entry): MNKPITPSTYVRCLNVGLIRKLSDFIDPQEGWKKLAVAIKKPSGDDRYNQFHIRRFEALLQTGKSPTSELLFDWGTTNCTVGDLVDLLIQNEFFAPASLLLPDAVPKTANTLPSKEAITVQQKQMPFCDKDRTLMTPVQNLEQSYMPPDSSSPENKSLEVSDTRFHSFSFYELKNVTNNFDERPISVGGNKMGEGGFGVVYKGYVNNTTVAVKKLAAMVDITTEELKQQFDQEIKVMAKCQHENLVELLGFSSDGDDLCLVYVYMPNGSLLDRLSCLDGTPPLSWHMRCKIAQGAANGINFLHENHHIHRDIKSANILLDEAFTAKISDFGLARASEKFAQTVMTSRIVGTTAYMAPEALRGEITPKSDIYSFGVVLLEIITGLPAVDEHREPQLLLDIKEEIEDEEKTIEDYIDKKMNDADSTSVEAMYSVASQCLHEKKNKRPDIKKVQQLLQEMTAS

Question: For `CN(C(=O)CN1CCOCC1)c1ccc2sc3c(-c4cccc5c(=O)cc(N6CC7CCC(C6)O7)oc45)cccc3c2c1` [NU5455], which inhibition at 1 µM is on record?
Answer: -20.5%
